Experiment [1] has as its system MKN-45 cells. Briefly: MET cell proliferation assay, MKN-45 (CellTiter-Glo). Format: cell-based. The settings on record: Homo sapiens, 72 hours treatment. As to the method:
(§1) Two thousand cells per well were seeded in 384 well white plate for 24 hrs, and then treated with compounds for 72 hours (37° C., 5% CO2). Cell proliferation was measured using CellTiter-Glo luciferase-based ATP detection assay (Promega) following the manufacturer's protocol. IC50 determinations were performed using GraphPad Prism software (GraphPad, Inc., San Diego, CA).
(§2) The anti-cell proliferation activities against MET and CSF1R driven cell lines were conducted with MKN-45, SNU-5, Ba/F3 TEL-CSF1R cells, and M-NFS-60 respectively.
(In general: ATP-based viability assays read luminescence as a measure of living cells.)

The target in another experiment is T1, MET (Homo sapiens, UniProt P08581).
T1 construct: purchased Reaction Biology Corporation (assay service; enzyme from the CRO's panel)
Kind of experiment: Biochemical kinase assay (Reaction Biology), MET. The settings on record: 10 μM ATP; read-out: Enzymatic Kinase MET IC50. As to the method: (§3) Specific kinase/substrate pairs along with required cofactors were prepared in reaction buffer; 20 mM Hepes pH 7.5, 10 mM MgCl2,1 mM EGTA, 0.02% Brij35, 0.02 mg/ml BSA, 0.1 mM Na3VO4, 2 mM DTT, 1% DMSO (for specific details of individual kinase reaction components see Supplementary Table 2). Compounds were delivered into the reaction, followed ˜20 minutes later by addition of a mixture of ATP (Sigma, St. Louis MO) and ^33P ATP (Perkin Elmer, Waltham MA) to a final concentration of 10 μM. Reactions were carried out at room temperature for 120 min, followed by spotting of the reactions onto P81 ion exchange filter paper (Whatman Inc., Piscataway, NJ). […] IC50 values and curve fits were obtained using Prism (GraphPad Software).
(§4) The enzymatic kinase inhibition activities at 10 μM ATP concentration were determined at Reaction Biology.

A further experiment deals with SNU-5 cells. Kind of experiment: MET cell proliferation assay, SNU-5 (CellTiter-Glo). The settings on record: Homo sapiens, 72 hours treatment. It counts as cell-based. As to the method:
as §1, §2

A further experiment deals with T2, SRC (Homo sapiens, UniProt P12931).
T2 construct: purchased Reaction Biology Corporation (assay service; enzyme from the CRO's panel)
Briefly: Biochemical kinase assay (Reaction Biology), SRC. The settings on record: 10 μM ATP; read-out: Enzymatic Kinase SRC IC50. As to the method: as §3, with “The biochemical kinase assay was performed at Reaction Biology Corporation (www.reactionbiology.com, Malvern, PA) following the procedures described in the reference (Anastassiadis T, et al Nat Biotechnol. 2011, 29, 1039). Specific” for “Specific”, “NJ). Unbound phosphate was removed by extensive washing of filters in 0.75% phosphoric acid.” for “NJ).”
as §4

The test system of experiment [2] is HCC827 cells. Briefly: HCC827 cell proliferation assay, single agents and combinations. It counts as cell-based, human.
The next experiment has as its target T3, c-FMS (CSF1R) (Homo sapiens, UniProt P07333).
T3 construct: purchased Reaction Biology Corporation (assay service; enzyme from the CRO's panel)
Briefly: Biochemical kinase assay (Reaction Biology), c-FMS (CSF1R). The settings on record: 10 μM ATP; read-out: Enzymatic Kinase c-FMS (CSF1R) IC50. As to the method: as §3, §4

The next experiment deals with M-NFS-60 cells. Kind of experiment: M-NFS-60 cell proliferation at varied CSF-1. Format: cell-based. The settings on record: Mus musculus, read-out: M-NFS-60 IC50. As to the method: as §1, §2
Experiment [3] concerns MKN-45 cells. Briefly: Scratch wound healing assay, MKN-45. It counts as cell-based. The settings on record: 36-48 hours treatment. As to the method:
(§5) MKN-45 or HCC827 cells were seeded in 24-well plate. After 12-24 hours, confluent cell monolayers were gently scraped with a sterile pipette tip to form a scratch. The plates were washed with fresh medium, and the cells were incubated with medium alone or medium containing various concentration of compounds. After 36-48 hours, the plates were examined and recorded by an EVOS FL microscopy (Life Technology) to monitor rescaling of the cell monolayer.

Experiment [4] relates to HCC827 cells. Briefly: Scratch wound healing assay, HCC827. Format: cell-based, human. The settings on record: 36-48 hours treatment. As to the method: as §5

We go through eleven molecules from patent publication US12606571B2, “Macrocyclic compounds and uses thereof” (TURNING POINT THERAPEUTICS, INC., priority 2017, dated 2026).

Molecules are shown by their SMILES. Read-outs that look alike come from different tables or passages of the source.

T1 sequence (P08581 25-1390): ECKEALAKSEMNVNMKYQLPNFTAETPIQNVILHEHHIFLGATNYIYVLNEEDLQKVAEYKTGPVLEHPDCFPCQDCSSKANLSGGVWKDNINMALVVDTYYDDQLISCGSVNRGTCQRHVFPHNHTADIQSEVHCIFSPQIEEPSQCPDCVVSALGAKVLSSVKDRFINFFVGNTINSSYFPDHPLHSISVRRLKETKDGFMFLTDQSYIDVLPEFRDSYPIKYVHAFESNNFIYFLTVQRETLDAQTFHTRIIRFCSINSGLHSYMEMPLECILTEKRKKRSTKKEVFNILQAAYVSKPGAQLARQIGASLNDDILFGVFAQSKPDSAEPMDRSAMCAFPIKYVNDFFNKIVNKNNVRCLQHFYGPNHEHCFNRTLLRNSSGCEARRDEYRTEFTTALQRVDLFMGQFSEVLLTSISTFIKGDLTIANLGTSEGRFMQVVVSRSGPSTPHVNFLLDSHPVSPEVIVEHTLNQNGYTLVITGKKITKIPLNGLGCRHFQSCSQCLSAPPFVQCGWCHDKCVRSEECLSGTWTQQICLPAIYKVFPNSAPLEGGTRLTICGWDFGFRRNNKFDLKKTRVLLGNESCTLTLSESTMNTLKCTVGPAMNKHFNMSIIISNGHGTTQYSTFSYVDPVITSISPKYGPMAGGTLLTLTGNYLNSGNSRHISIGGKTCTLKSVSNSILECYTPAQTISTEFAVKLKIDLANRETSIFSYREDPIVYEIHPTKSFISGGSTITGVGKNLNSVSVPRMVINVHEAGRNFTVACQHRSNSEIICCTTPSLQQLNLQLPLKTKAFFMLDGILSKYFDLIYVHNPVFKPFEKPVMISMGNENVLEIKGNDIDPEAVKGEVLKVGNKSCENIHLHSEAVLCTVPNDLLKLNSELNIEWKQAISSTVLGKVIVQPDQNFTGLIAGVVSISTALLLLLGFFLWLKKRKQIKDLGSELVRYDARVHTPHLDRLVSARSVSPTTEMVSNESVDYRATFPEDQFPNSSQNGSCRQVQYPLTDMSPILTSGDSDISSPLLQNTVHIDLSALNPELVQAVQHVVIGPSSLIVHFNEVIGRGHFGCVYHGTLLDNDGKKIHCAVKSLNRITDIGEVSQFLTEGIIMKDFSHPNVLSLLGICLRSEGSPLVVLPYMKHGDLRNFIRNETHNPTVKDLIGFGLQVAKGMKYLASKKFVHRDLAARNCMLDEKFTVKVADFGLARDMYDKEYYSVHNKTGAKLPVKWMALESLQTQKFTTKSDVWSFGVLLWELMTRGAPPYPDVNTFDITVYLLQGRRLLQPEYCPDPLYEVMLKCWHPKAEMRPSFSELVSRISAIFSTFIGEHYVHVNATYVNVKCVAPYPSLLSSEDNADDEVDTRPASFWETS
T2 sequence (P12931 whole entry): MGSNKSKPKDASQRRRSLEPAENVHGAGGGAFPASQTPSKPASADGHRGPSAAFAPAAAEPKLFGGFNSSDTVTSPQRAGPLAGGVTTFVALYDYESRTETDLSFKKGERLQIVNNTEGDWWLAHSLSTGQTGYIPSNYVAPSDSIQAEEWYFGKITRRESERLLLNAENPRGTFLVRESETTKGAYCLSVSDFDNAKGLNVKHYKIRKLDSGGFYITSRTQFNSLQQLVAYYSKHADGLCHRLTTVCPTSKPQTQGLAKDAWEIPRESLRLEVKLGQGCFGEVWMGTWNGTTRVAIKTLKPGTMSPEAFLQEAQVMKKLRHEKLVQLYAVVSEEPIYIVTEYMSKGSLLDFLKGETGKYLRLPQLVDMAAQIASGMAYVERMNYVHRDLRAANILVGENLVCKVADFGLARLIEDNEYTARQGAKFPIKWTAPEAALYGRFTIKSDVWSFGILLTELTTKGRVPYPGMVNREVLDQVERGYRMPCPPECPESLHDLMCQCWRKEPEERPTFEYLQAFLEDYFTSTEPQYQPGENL
T3 sequence (P07333 20-972): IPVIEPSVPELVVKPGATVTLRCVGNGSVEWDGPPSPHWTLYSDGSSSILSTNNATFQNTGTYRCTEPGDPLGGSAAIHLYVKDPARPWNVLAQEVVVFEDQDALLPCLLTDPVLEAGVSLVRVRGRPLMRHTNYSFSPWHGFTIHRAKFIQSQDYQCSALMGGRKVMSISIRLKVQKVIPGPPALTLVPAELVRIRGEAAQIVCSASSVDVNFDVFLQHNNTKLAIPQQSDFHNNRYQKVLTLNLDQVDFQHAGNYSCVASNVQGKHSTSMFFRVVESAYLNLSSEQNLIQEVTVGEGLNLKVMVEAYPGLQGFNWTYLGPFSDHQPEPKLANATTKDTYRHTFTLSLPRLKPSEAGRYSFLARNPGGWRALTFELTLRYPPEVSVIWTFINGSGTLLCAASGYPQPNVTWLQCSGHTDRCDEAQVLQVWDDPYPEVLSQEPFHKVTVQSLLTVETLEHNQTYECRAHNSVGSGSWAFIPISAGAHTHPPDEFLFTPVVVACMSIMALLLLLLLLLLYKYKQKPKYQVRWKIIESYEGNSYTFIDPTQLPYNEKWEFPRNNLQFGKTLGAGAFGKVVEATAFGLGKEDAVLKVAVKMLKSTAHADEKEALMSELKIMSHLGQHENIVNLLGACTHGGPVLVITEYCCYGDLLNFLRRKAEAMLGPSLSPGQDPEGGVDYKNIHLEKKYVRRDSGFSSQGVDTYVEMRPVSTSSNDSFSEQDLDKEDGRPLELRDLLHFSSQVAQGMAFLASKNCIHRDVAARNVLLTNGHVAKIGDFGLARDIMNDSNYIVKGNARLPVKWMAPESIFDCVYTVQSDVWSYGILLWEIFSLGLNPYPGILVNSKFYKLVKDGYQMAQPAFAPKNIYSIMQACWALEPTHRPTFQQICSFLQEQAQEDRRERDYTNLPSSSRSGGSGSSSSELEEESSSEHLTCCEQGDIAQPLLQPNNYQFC

`C[C@H]1CNC(=O)c2c(N)nn3ccc(nc23)NCc2c(ccc(F)c2C#N)O1` [Compound 9, (7S)-3-amino-11-fluoro-7-methyl-4-oxo-4,5,6,7,13,14-hexahydro-1,15-ethenopyrazolo[4,3-f][1,4,8,10]benzoxatriazacyclotridecine-12-carbonitrile] displayed an IC50 in the experiment on MKN-45 cells [1] of 297 nM.

As for `CCN1Cc2c(C#N)cccc2O[C@@H](C)CNC(=O)c2cnn3ccc1nc23` [Compound 2, (7S)-14-ethyl-7-methyl-4-oxo-4,5,6.7,13,14-hexahydro-1,15-ethenopyrazolo[4,3-f][1,4,8,10]benzoxatriazacyclotridecine-12-carbonitrile], the IC50 on MET worked out at 36.5 nM; with MKN-45 cells [1], 129 nM; in the experiment with SNU-5 cells it was 136 nM; on SRC, 3 nM.

In the case of `CCN1Cc2c(C#N)cccc2O[C@@H](C)CNC(=O)c2c(N)nn3ccc1nc23` [Compound 6, (7S)-3-amino-14-ethyl-7-methyl-4-oxo-4,5,6,7,13,14-hexahydro-1,15-ethenopyrazolo[4,3-f][1,4,8,10]benzoxatriazacyclotridecine-12-carbonitrile], the IC50 was 9.7 nM at MET, 58.3 nM in the experiment with MKN-45 cells [1], 36.8 nM in the experiment on SNU-5 cells and 13.6 nM at SRC.

Turning to `C=CC(=O)Nc1cc(Nc2nccc(-c3cn(C)c4ccccc34)n2)c(OC)cc1N(C)CCN(C)C` [AZD9291], the Emax with HCC827 cells [2] (Homo sapiens, HCC827, read-out: HCC827 cell proliferation Emax (maximum inhibition)) amounted to 47%. In the experiment on HCC827 cells [2] (Homo sapiens, HCC827, read-out: HCC827 cell proliferation IC50), the IC50 came out at 5 nM.

`CCN1Cc2c(C#N)cccc2OCCNC(=O)c2cnn3ccc1nc23` [Compound 3, 14-ethyl-4-oxo-4,5,6,7,13,14-hexahydro-1,15-ethenopyrazolo[4,3-f][1,4,8,10]benzoxatriazacyclotridecine-12-carbonitrile]: the IC50 at MET is 110 nM; in the experiment on MKN-45 cells [1] it was 471 nM; in the experiment with SNU-5 cells, 674 nM; at SRC, 97.1 nM.

As for `C[C@H]1CNC(=O)c2c(N)nn3ccc(nc23)N(CC2CC2)Cc2c(ccc(F)c2C#N)O1` [Compound 7, (7S)-3-amino-14-(cyclopropylmethyl)-11-fluoro-7-methyl-4-oxo-4,5,6,7,13,14-hexahydro-1,15-ethenopyrazolo[4,3-f][1,4,8,10]benzoxatriazacyclotridecine-12-carbonitrile], the IC50 on MET is 2.2 nM; with MKN-45 cells [1], 17.7 nM; with SNU-5 cells, 1 nM; at SRC, 0.7 nM.

Consider `CCN1Cc2c(ccc(F)c2Cl)O[C@@H](C)CNC(=O)c2c(N)nn3ccc1nc23` [Compound 1, (7S)-3-amino-12-chloro-14-ethyl-11-fluoro-7-methyl-6,7,13,14-tetrahydro-1,15-ethenopyrazolo[4,3-f][1,4,8,10]benzoxatriazacyclotridecin-4(5H)-one], for which the IC50 on MET is 20.4 nM; in the experiment on MKN-45 cells [1], 193 nM; with SNU-5 cells, 174 nM.

As for `CCN1Cc2c(ccc(F)c2C#N)O[C@@H](C)CNC(=O)c2cnn3ccc1nc23` [Compound 4, (7S)-14-ethyl-11-fluoro-7-methyl-4-oxo-4,5,6,7,13,14-hexahydro-1,15-ethenopyrazolo[4,3-f][1,4,8,10]benzoxatriazacyclotridecine-12-carbonitrile], the IC50 was determined as 1.85 nM on MET; 12 nM with MKN-45 cells [1]; 5.8 nM in the experiment on SNU-5 cells; 0.49 nM on SRC; 0.42 nM at c-FMS (CSF1R).

For `FC(F)(F)c1ccc(CNc2ccc(Cc3c[nH]c4ncc(Cl)cc34)cn2)cn1` [Pexidartinib, reference compound], the IC50 with M-NFS-60 cells (CSF-1 0 ng/mL) is under 0.1 nM; in the experiment with M-NFS-60 cells (CSF-1 0.3 ng/mL), 2 nM; in the experiment with M-NFS-60 cells (CSF-1 1 ng/mL), 146 nM; in the experiment on M-NFS-60 cells (CSF-1 3 ng/mL), 212 nM; in the experiment with M-NFS-60 cells (CSF-1 10 ng/mL) it was 380 nM; in the experiment with M-NFS-60 cells (CSF-1 30 ng/mL), 595 nM. Besides, the IC50 in the experiment with M-NFS-60 cells (CSF-1 100 ng/mL) is 702 nM.

As to `CC(C)N1Cc2c(ccc(F)c2C#N)O[C@@H](C)CNC(=O)c2c(N)nn3ccc1nc23` [Compound 8, (7S)-3-amino-11-fluoro-7-methyl-4-oxo-14-(propan-2-yl)-4,5,6,7,13,14-hexahydro-1,15-ethenopyrazolo[4,3-f][1,4,8,10]benzoxatriazacyclotridecine-12-carbonitrile], the IC50 turned out to be 3.8 nM at MET, 1 nM with MKN-45 cells [1], 1 nM with SNU-5 cells and 0.83 nM at SRC.

Regarding `CNC(=O)c1ccc(-c2cnc3ncc(Cc4ccc5ncccc5c4)n3n2)cc1F` [capmatinib], in the experiment with MKN-45 cells [3], the “cell migration of MKN-45 cells, wound healing” value was “inhibited”. Further, the “cell migration of HCC827 cells, wound healing” value is reported as “minimum effect” with HCC827 cells [4] and “minimal effect” in the experiment on HCC827 cells [4] (listed as campmatinib). For the same molecule, the IC50 with HCC827 cells [2] (Homo sapiens, HCC827, combination partner at 1 μM where combined, AZD9291 curves partial, read-out: HCC827 cell proliferation IC50) is over 10000 nM. Further, the “HCC827 cell proliferation IC50” value in the experiment with HCC827 cells [2] (combination partner at 1 μM where combined, AZD9291 curves partial) is recorded as “not active”.
